Source: US20200181101A1, “BENZAMIDE INHIBITORS OF BACTERIAL LIPOPROTEIN SIGNAL PEPTIDASE” (The Scripps Research Institute, priority 2017, published 2020)
Entries after “also recorded” stand apart in the source; their conditions may differ. Where two headings read alike, the source gives them in different places.

Legend:
[1] = biological target: T1, Lsp from E. coli (Escherichia coli, UniProt P00804); assay: Lsp FRET activity assay, IC50 determination; assay type: biochemical
T1 construct: The full-length Lsp clone from E. coli (residues 1-164); His6 with enterokinase cleavage site (pET19b) (N); made in house; host or cells: E. coli Lemo21 (DE3), pET19b vector
T1 sequence (P00804 whole entry, the tested form may be a part): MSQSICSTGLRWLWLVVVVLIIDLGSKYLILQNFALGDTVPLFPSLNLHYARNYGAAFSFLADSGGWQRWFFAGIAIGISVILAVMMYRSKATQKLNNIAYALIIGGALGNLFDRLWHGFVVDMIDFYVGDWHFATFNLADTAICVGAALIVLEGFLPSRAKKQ
Procedure: […] […] 50 μM Lsp FRET substrate was subsequently added and the rate of substrate hydrolysis was measured by increase in fluorescence (excitation 355 nm, emission 495 nm) in 96-well plates on a PerkinElmer EnVision plate reader or Tecan Safire 2 microplate reader. Michaelis-Menten constants and […] were determined using GraphPad Prism software (GraphPad, Inc.).

[2] = system: E. coli (ATCC25922); assay: Bacteria growth assay, E. coli ATCC25922; assay type: cell-based
Procedure: (§1) Effect of compounds on bacterial growth was measured using the method described previously with slight modifications^[1]. Colony suspension method was used to prepare bacteria suspension using McFarland Standard 0.5 to adjust the turbidity. Cells were introduced to two-fold serial dilutions of compound in a final volume of 105 μL with 5% DMSO. Mueller-Hinton broth (MH) or LB broth was used for E. coli ATCC25922 or E. coli DW37 and YX23, respectively. Plates were incubated at 37° C., and the OD600 was measured using a PerkinElmer EnVision plate reader after gentle shaking. Mutant E. coli (DW37 and YX23) were previously described.^[2] Globomycin was used as a positive control and the concentration-response curves of globomycin on bacteria growth (E. coli ATCC25922) is shown below (error bar: SD).

[3] = system: E. coli DW37; assay: Bacteria growth assay, isogenic parent strain DW37; assay type: cell-based; design: dose or concentration left out as unconfirmed; conditions: OD600 at 10 h
Procedure: as §1

[4] = system: E. coli YX23; assay: Bacteria growth assay, Lsp-inhibition resistant mutant YX23; assay type: cell-based; design: dose or concentration left out as unconfirmed; conditions: OD600 at 24 h
Procedure: as §1

[5] = system: E. coli YX23; conditions: literature [14]; cited from earlier work
[6] = FRET-based assay, [Lsp] = 400 nM, mean (± SD), read-out: IC50
[7] = Table 5, [Lsp] = 20 nM, read-out: IC50
[8] = Table 5, E = 100 nM, read-out: IC50
[9] = Table 7, linker variation, E = 100 nM, read-out: IC50
[10] = Table 2, variation of R3, read-out: IC50

COc1cc(C(=O)Nc2nnc(C3CCCCC3)s2)c([N+](=O)[O-])cc1OC [1c, N-(5-cyclohexyl-1,3,4-thiadiazol-2-yl)-4,5-dimethoxy-2-nitrobenzamide]
potency against Lsp, in words (SAR) [1]: ablated the potency
IC50 [1, 6]: > 400 µM
bacterial growth, in words ([2]; in combination with PMBN 8 mg/L): did not inhibit the bacterial growth

CCC(CC)c1nnc(NC(=O)c2cc(OC)c(OC3CCCC3)cc2[N+](=O)[O-])s1 [1j, 4-(cyclopentyloxy)-5-methoxy-2-nitro-N-(5-(pentan-3-yl)-1,3,4-thiadiazol-2-yl)benzamide]
effect on cleaved substrate fluorescence [1]: no effect
Hill constant ([1]; [S]=50 μM, [Lsp]=100 nM): approximately 1
IC50 ([1]; read-out: IC50): 0.099 µM
growth of DW37 [3]: inhibited the growth
bacterial growth, in words ([2]; cultures of E. coli): inhibits bacterial growth
growth of YX23 [4]: resistant; also recorded: did not inhibit the growth

CCCC1OC(=O)C(C)CC(C)CCCCC(=O)CCCC(CC)/C=C/C=C(\COC)CCC(O)C(O)CC(O)CNC1=O (centres unmarked) [myxovirescin]
resistance of YX23 [5]: resistant

CCC(CC)c1nnc(NC(=O)c2cc(OC)c(OC3CCCC3)cc2[N+](=O)[O-])s1 [Sk052-145-2]
IC50 [1, 7]: 0.073 µM

O=C(O)CCSCCCCCc1nnc(NC(=O)c2cc(Cl)c(OC3CCCC3)cc2[N+](=O)[O-])s1 [Sk056-27]
IC50 ([1]; Table 6, read-out: IC50): 11 µM

CCC(CC)c1nnc(NC(=O)c2cc(Cl)c(Oc3ccc(NC(=O)OC(C)(C)C)cc3)cc2[N+](=O)[O-])s1 [Sk061-29]
IC50 [1, 8]: 0.64 µM
IC50 [1, 9]: 0.64 µM

CCC(CC)c1nnc(NC(=O)c2cc(OS(=O)(=O)On3nnc4ncccc43)ccc2[N+](=O)[O-])s1 [Sk054-141-1]
IC50 ([1]; Table 4, read-out: IC50): 120 µM

CCC(CC)c1nnc(NC(=O)c2ccc(OC)cc2[N+](=O)[O-])s1 [Sk052-146-2]
IC50 ([1]; Table 4, read-out: IC50): 2.2 µM

CCC(CC)c1nnc(NC(=O)c2ccc(OS(=O)(=O)F)cc2[N+](=O)[O-])s1 [Sk056-45-1]
IC50 [1]: 46 µM

CCCCc1nnc(NC(=O)c2cc(OC)c(OC)cc2[N+](=O)[O-])s1 [1d]
IC50 [1, 6]: 29 µM
IC50 [1, 10]: 29 ± 0.6 µM

CCC(CC)c1nnc(NC(=O)c2cc(Cl)c(OCCCCCCN)cc2[N+](=O)[O-])s1 [Sk061-45]
IC50 [1, 8]: > 4 µM

CCC(CC)c1nnc(NC(=O)c2ccccc2C(=O)O)s1 [Sk056-24]
IC50 ([1]; Table 4, read-out: IC50): 270 µM

CCC(CC)c1nnc(NC(=O)c2cc(Cl)c(OC3CCCC3)cc2[N+](=O)[O-])s1 [Sk054-116-2]
IC50 [1, 7]: 0.11 ± 0.012 µM
IC50 ([1]; Table 6, read-out: IC50): 0.11 ± 0.012 µM

CCC(CC)c1nnc(NC(=O)c2cc(OC)c(OCc3ccccc3)cc2[N+](=O)[O-])s1 [Sk054-82-3]
IC50 [1, 7]: 2.9 µM

CCC(CC)c1nnc(NC(=O)c2cc(Cl)c(OC3CCC(C)(C)CC3)cc2[N+](=O)[O-])s1 [Sk061-31-1]
IC50 [1, 8]: 0.23 µM

CCC(CC)c1nnc(NC(=O)c2ccc(OC)c(OC)c2)s1 [1b]
potency against Lsp, in words (SAR) [1]: ablated the potency
IC50 [1, 6]: 110 µM

CCC(CC)c1nnc(NC(=O)c2ccccc2C(=O)OC)s1 [Sk056-13-2]
IC50 ([1]; Table 4, read-out: IC50): 12 µM

O=C(Nc1nnc(CCCCCCl)s1)c1cc(Cl)c(OC2CCCC2)cc1[N+](=O)[O-] [Sk056-15]
IC50 ([1]; Table 6, read-out: IC50): 3.8 µM

CCC(CC)c1nnc(NC(=O)c2cc(Cl)c(OC3CCN(C(=O)OC(C)(C)C)CC3)cc2[N+](=O)[O-])s1 [Sk061-80-4]
IC50 [1, 9]: 1.1 µM

CCC(CC)c1nnc(NC(=O)c2ccc(OS(=O)(=O)F)cc2O)s1 [Sk056-50-4]
IC50 [1]: 290 µM

CCC(CC)c1nnc(NC(=O)c2cc(Cl)c(OC3CCCCC3)cc2[N+](=O)[O-])s1 [Sk056-29]
IC50 [1, 7]: 0.068 µM

COc1cc(C(=O)Nc2nnc(C(C)C)s2)c([N+](=O)[O-])cc1OC [Sk061-69-1]
IC50 [1, 10]: 44 µM
IC50 ([1]; Table 3, read-out: IC50): 44 µM

CCC(CC)c1nnc(NC(=O)c2cc(Cl)c(Oc3ccc(O)cc3)cc2[N+](=O)[O-])s1 [Sk061-30-1]
IC50 [1, 8]: > 4 µM

CCC(CC)c1nnc(NC(=O)c2ccc(OC3CCCC3)cc2[N+](=O)[O-])s1 [Sk054-116-1]
IC50 [1, 7]: 0.4 µM

CCCCCCC1OC(=O)CNC(=O)C(C(C)O)NC(=O)C(CO)NC(=O)C(C(C)CC)NC(=O)C(CC(C)C)N(C)C(=O)C1C (centres unmarked) [Globomycin, globomycin]
resistance of YX23 [5]: resistant

CCC(CC)c1nnc(NC(=O)c2cc(Cl)c(OC3CCC(F)(F)CC3)cc2[N+](=O)[O-])s1 [Sk061-31-2]
IC50 [1, 8]: 0.58 µM
